Converted amounts (≈) assume the structure as drawn. The source made the active and inactive calls. No cut-off for these calls is given here.
Legend:
Escherichia coli [1] = assay: Antibacterial activity against Escherichia coli ATCC 25922 harboring tolC knock-out assessed as inhibition of bacterial growth incubated for 18 hrs; format: functional; conditions: read-out: MIC100
Klebsiella pneumoniae [2] = assay: Antibacterial activity against wild-type Klebsiella pneumoniae ATCC 13883 assessed as inhibition of bacterial growth incubated for 18 hrs in presence of 50% heat inactivated human serum; format: functional; conditions: read-out: MIC100
[3] = Hydrophobicity of compound assessed as %MeCN at peak elution by RP-HPLC analysis; format: physicochemical
[4] = Aqueous solubility of compound at pH 4.6; format: physicochemical
[5] = Chemical stability of compound at pH 2; format: physicochemical; conditions: buffer
[6] = Chemical stability of compound at pH 7.4; format: physicochemical; conditions: buffer
[7] = Hepatotoxicity in cryopreserved rat primary hepatocytes; format: toxicity, cell-based, Hepatocyte
Cytochrome P450 3A4 [8] = molecular target: T1, Cytochrome P450 3A4 (Homo sapiens, UniProt P08684); assay: Induction of CYP3A4 (unknown origin); format: ADME
T1 sequence (P08684 whole entry): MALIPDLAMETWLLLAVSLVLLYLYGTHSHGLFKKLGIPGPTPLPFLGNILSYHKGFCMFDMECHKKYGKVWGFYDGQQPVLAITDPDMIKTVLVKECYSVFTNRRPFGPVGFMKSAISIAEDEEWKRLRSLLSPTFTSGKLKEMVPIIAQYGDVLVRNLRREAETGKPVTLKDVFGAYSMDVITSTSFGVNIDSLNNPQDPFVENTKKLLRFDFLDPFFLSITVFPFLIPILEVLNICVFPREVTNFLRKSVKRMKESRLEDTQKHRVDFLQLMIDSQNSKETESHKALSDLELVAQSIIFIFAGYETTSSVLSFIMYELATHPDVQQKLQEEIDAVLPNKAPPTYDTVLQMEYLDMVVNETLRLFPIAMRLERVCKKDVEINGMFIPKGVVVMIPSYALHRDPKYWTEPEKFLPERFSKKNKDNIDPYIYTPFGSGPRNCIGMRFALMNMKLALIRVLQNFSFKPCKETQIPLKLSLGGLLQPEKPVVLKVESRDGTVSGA

Cytochrome P450 3A4 [9] = molecular target: T1, Cytochrome P450 3A4; assay: Inhibition of CYP3A4 (unknown origin); format: ADME
Cytochrome P450 2B6 = molecular target: T2, Cytochrome P450 2B6 (Homo sapiens, UniProt P20813); assay: Inhibition of CYP2B6 (unknown origin); format: ADME
T2 sequence (P20813 whole entry): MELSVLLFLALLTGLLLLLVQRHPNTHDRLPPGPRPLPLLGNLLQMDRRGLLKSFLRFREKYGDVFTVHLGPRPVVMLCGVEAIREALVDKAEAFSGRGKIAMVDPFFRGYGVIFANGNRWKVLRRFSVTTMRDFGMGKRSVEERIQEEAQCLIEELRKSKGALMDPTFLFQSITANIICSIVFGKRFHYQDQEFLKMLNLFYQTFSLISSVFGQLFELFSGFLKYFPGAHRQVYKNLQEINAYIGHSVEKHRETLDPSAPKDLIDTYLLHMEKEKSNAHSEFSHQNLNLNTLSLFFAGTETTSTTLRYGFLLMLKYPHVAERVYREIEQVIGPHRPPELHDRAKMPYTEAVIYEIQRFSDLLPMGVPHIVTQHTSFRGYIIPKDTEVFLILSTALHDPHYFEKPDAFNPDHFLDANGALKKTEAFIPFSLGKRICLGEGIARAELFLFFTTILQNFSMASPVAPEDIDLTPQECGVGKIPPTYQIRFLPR

[10] = Cmax in Swiss mouse kidney at 10 mg/kg, iv administered as single bolus dose and measured upto 24 hrs by LC-MS/MS analysis; format: ADME, organism-based
[11] = Cmax in Swiss mouse lung at 10 mg/kg, iv administered as single bolus dose and measured upto 24 hrs by LC-MS/MS analysis; format: ADME, organism-based
[12] = Cmax in Swiss mouse liver at 10 mg/kg, iv administered as single bolus dose and measured upto 24 hrs by LC-MS/MS analysis; format: ADME, organism-based
[13] = AUClast in Swiss mouse kidney at 10 mg/kg, iv administered as single bolus dose and measured upto 24 hrs by LC-MS/MS analysis; format: ADME, organism-based
[14] = Observed clearance in Swiss mouse at 10 mg/kg, iv administered as single bolus dose and measured upto 24 hrs by LC-MS/MS analysis; format: ADME, organism-based; conditions: in vivo
[15] = Half life in Swiss mouse at 10 mg/kg, iv administered as single bolus dose and measured upto 24 hrs by LC-MS/MS analysis; format: ADME, organism-based; conditions: in vivo
Klebsiella aerogenes = assay: Antibacterial activity against Enterobacter aerogenes ATCC 13048 assessed as inhibition of bacterial growth incubated for 18 hrs; format: functional; conditions: read-out: MIC100
Escherichia coli [16] = assay: Antibacterial activity against Escherichia coli ATCC BAA-2469 expressing NDM-1 assessed as inhibition of bacterial growth incubated for 18 hrs; format: functional; conditions: read-out: MIC100
Escherichia coli [17] = assay: Antibacterial activity against Escherichia coli Swiss 9 harboring mcr-1 gene assessed as inhibition of bacterial growth incubated for 18 hrs; format: functional; conditions: read-out: MIC100
Morganella morganii = assay: Antibacterial activity against Morganella morganii ATCC 25830 assessed as inhibition of bacterial growth incubated for 18 hrs; format: functional; conditions: read-out: MIC100
Proteus mirabilis = assay: Antibacterial activity against Proteus mirabilis ATCC 7002 assessed as inhibition of bacterial growth incubated for 18 hrs; format: functional; conditions: read-out: MIC100
Serratia marcescens = assay: Antibacterial activity against intrinsically colistin resistant Serratia marcescens ATCC 13880 assessed as inhibition of bacterial growth incubated for 18 hrs; format: functional; conditions: read-out: MIC100
Escherichia coli [18] = assay: Antibacterial activity against Escherichia coli panel (100 strains) assessed as inhibition of bacterial growth; format: functional
Escherichia coli [19] = assay: Antibacterial activity against Escherichia coli ATCC 25922 assessed as inhibition of bacterial growth incubated for 18 hrs in presence of 150 mM NaCl; format: functional, organism-based
Klebsiella pneumoniae [20] = assay: Antibacterial activity against Klebsiella pneumoniae ATCC 13883 assessed as inhibition of bacterial growth incubated for 18 hrs in presence of 2 mM CaCl2; format: functional, organism-based
[21] = Drug uptake in Escherichia coli ATCC 25922 at 10 uM incubated for 10 mins by LC-MS/MS analysis; format: ADME
[22] = Binding affinity to gram negative bacterial lipid II assessed as dissociation constant by ITC analysis; parameters: species or system Bacteria
Lipopolysaccharide (LPS) = assay: Binding affinity to Pseudomonas aeruginosa LPS assessed as dissociation constant by ITC analysis; format: subcellular
Klebsiella pneumoniae [23] = assay: Bactericidal activity against Klebsiella pneumoniae ATCC 13883 at 0 to 8 times MIC measured for 24 hrs by time-kill assay; format: functional, organism-based
Cell membrane = assay: Induction of membrane permeabilization in Escherichia coli ATCC 25922 at 32 to 64 ug/ml measured after 30 mins to 2 hrs by Sytox Green labelling based microscopic analysis; format: cell membranes; conditions: dose 32-64 µg/ml, time 0.5-2 hrs
[24] = Toxicity in naive mouse at 5 to 15 mg/kg, iv administered as single dose every 4 hrs for 24 hrs; format: organism-based; conditions: in vivo, dose 5-15 mg/kg
Escherichia coli [25] = assay: Antibacterial activity against Escherichia coli ATCC 35218 infected in Swiss albino mouse septicemia model at 10 to 30 mg/kg, iv administered twice every 2 hrs and measured after 5 hrs; format: functional, organism-based; conditions: dose 10-30 mg/kg
Klebsiella pneumoniae [26] = assay: Antibacterial activity against Klebsiella pneumoniae ATCC 43816 infected in mouse urinary tract infection model assessed as reduction in bacterial burden in kidney at <10 mg/kg, iv administered every 4 hrs and measured after 26 hrs; format: functional, organism-based
Klebsiella pneumoniae [27] = assay: Antibacterial activity against Klebsiella pneumoniae ATCC 43816 infected in mouse urinary tract infection model assessed as reduction in bacterial burden in urine at <10 mg/kg, iv administered every 4 hrs and measured after 26 hrs; format: functional, organism-based

Question: Which MIC (Escherichia coli [1]) does the source give for `CC[C@H](C)[C@@H](NC(=O)[C@@H](NC(=O)[C@H](CCC(=O)O)NC(=O)[C@H](Cc1ccccc1)NC(=O)[C@@H](CCN)NC(=O)[C@H](CCN)NC(=O)[C@H](CO)NC(=O)[C@@H](Cc1c[nH]c2ccccc12)NC(=O)[C@@H](CO)NC(=O)CNC(=O)[C@@H](CCN)NC(=O)[C@H](NC(=O)[C@H](C)N)C(C)C)C(C)C)C(=O)N[C@@H](C)C(=O)O` here?
Answer: The MIC was 1 µg/mL (≈ 0.682 µM).

Question: And the MIC (Klebsiella pneumoniae [2])?
Answer: The MIC was 1 µg/mL.

Question: And the “MeCN percentage at peak elution” value [3]?
Answer: Its value is 40.3%.

Question: What about the solubility [4] of the same compound?
Answer: Its solubility is > 1000 µg/mL.

Question: What about the Stability [5] of the same compound?
Answer: Its Stability is “Stable”.

Question: What about the Stability [6] of the same compound?
Answer: The Stability was “Stable”.

Question: And the Activity [7]?
Answer: The Activity was “Non-Toxic”.

Question: What about the Activity (Cytochrome P450 3A4 [8]) of the same compound?
Answer: Its Activity is “Not Active”.

Question: And the “inhibition (INH)” value (Cytochrome P450 3A4 [9])?
Answer: The value was “Not Active”.

Question: And the “inhibition (INH)” value (Cytochrome P450 2B6)?
Answer: Its value is “Not Active”.

Question: What about the Cmax [10] of the same compound?
Answer: Its Cmax is 152000 ng/mL.

Question: And the Cmax [11]?
Answer: The Cmax was 17000 ng/mL.

Question: And the Cmax [12]?
Answer: The Cmax was 5650 ng/mL.

Question: What about the AUC(0-t) at 24 h [13] of the same compound?
Answer: The AUC(0-t) at 24 h was 659 µg·h/mL.

Question: What about the clearance [14] of the same compound?
Answer: The clearance was 2 mL/min/kg.

Question: And the half-life [15]?
Answer: The half-life was 22.8 min.

Question: What about the MIC (Klebsiella aerogenes) of the same compound?
Answer: The MIC was 8 µg/mL (≈ 5.46 µM).

Question: What about the MIC (Escherichia coli [16]) of the same compound?
Answer: Its MIC is 8 µg/mL (≈ 5.46 µM).

Question: And the MIC (Escherichia coli [17])?
Answer: The MIC was 8 µg/mL (≈ 5.46 µM).

Question: What about the MIC (Morganella morganii) of the same compound?
Answer: The MIC was > 32 µg/mL.

Question: What about the MIC (Proteus mirabilis) of the same compound?
Answer: Its MIC is > 64 µg/mL.

Question: And the MIC (Serratia marcescens)?
Answer: The MIC was 8 µg/mL (≈ 5.46 µM).

Question: And the MIC50 (Escherichia coli [18])?
Answer: The MIC50 was 4 µg/mL (≈ 2.73 µM).

Question: What about the MIC90 (Escherichia coli [18]) of the same compound?
Answer: Its MIC90 is 8 µg/mL (≈ 5.46 µM).

Question: What about the Activity (Escherichia coli [19]) of the same compound?
Answer: Its Activity is “Active”.

Question: What about the Activity (Klebsiella pneumoniae [20]) of the same compound?
Answer: Its Activity is “Active”.

Question: And the Drug uptake [21]?
Answer: Its Drug uptake is “Active”.

Question: What about the Kd [22] of the same compound?
Answer: Its Kd is 2.6 µM.

Question: What about the Kd (Lipopolysaccharide (LPS)) of the same compound?
Answer: Its Kd is 42.8 µM.

Question: And the Activity (Klebsiella pneumoniae [23])?
Answer: Its Activity is “Active”.

Question: What about the Activity (Cell membrane) of the same compound?
Answer: The Activity was “Active”.

Question: What about the Activity [24] of the same compound?
Answer: The Activity was “Non-Toxic”.

Question: And the Activity (Escherichia coli [25])?
Answer: Its Activity is “Active”.

Question: And the Activity (Klebsiella pneumoniae [26])?
Answer: The Activity was “Active”.

Question: What about the Activity (Klebsiella pneumoniae [27]) of the same compound?
Answer: Its Activity is “inactive”.

From ChEMBL document CHEMBL5518181, “Studies of antibacterial activity (in vitro and in vivo) and mode of action for des-acyl tridecaptins (DATs)” (Eur J Med Chem, 2024)
